In patent US20230027295A1, “FXIA INHIBITORS AND PREPARATION METHOD THEREFOR AND PHARMACEUTICAL USE THEREOF” (Shenzhen Salubris Pharmaceuticals Co., Ltd., priority 2019, published 2023):

What was measured:
Human Factor VIIa = biological target: T1, Human Factor VIIa (Homo sapiens, UniProt P08709); assay: Selectivity to coagulation factors: hFVIIa (substrate S-2288); type: biochemical
T1 construct: hFVIIa: Human Factor VIIa: hFVIIa 4591L; purchased hFVIIa 4591L
T1 sequence (P08709 213-466 limits assumed): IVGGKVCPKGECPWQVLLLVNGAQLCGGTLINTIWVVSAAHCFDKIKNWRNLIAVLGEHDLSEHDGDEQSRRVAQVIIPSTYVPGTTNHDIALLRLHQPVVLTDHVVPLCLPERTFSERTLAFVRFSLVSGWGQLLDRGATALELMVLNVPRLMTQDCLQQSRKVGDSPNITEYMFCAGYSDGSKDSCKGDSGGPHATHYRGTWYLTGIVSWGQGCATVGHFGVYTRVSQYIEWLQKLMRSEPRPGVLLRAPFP
T1 sequence (P08709 61-212 partner limits assumed): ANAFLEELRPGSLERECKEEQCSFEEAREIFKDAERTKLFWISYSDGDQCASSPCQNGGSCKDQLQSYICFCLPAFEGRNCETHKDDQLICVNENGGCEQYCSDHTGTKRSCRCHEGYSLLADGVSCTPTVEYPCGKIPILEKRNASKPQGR
Protocol: Example 52: Investigation of the Selectivity of the Compounds of the Present Invention to Coagulation Factors
Enzyme: hFXa: Human Factor Xa: 71nkat. hFIIa: HT5146L. hFVIIa: Human Factor VIIa: hFVIIa 4591L. kallikrein: LOT180223.
10 mM test compound dissolved in 100% DMSO was diluted with 100% DMSO to 1000, 200, 40, 8, 1.6 μM. 98 μL of enzyme solution was added to each well of a 96-well plate, while 98 μL of buffer was added to the blank wells. 2 μL of compounds of different concentrations were added, while the blank and control wells were added with DMSO instead. They were mixed with a shaker, and incubated at 37° C. for 20 min.
The concentrations of hFXa and S-2222™ were FXa (1:28) and 800 μmol/L, respectively. The concentrations of hFIIa and S-2238™ were hFIIa (0.06 U/ml) and 500 μmol/L, respectively. The concentrations of hFVIIa and S-2288™ were hFVIIa (80 nM) and 1600 μmol/L, respectively. The concentrations of kallikrein and substrate were kallikrein (20 nM) and 1600 μmol/L, respectively.
Finally, 100 μL substrate was added to each well, and its absorbance was measured at 405 nm.

Caco-2 permeability = type: in vitro ADME; details: human; for efflux ratio at 2 h: Caco-2, Papp(B-A)/Papp(A-B); for Papp A→B at 2 h / Papp B→A at 2 h: Caco-2 monolayer, 2h incubation
Protocol: Example 54: Investigation of the Caco-2 Data of the Compounds of the Present Invention
Medium: DMEM (Corning), FBS (Corning), double antibody (Solarbio), 96-well HTS transwell plate (Corning), Caco-2 cells.
Experimental method: Caco-2 cells were cultured on 96-well HTS transwell plate for 14-18 days, and the TEER value of each well was detected to ensure that the cells in each well formed a complete monolayer. Drug was added and it was incubated for 2h to detect the drug concentrations of A-B and B-A.
Data processing: PappA-B and PappB-A values were calculated: Papp=(VA×[drug]acceptor)/(Area×Time×[drug]initial, donor); Efflux Ratio was calculated: Efflux Ratio=Papp(B-A)/Papp(A-B).

Human Factor XIa = Human Factor XIa (Homo sapiens, UniProt P03951); assay: Inhibition of human coagulation factor XIa by absorptiometry (substrate S-2366); type: biochemical; details: 37° C., 20 min incubation, absorbance 405 nm; read-out: hFXIa IC50
Protocol: Example 50: Detection of the Biological Activity of the Compounds of the Present Invention on the Inhibition of Human Coagulation Factor XIa by Absorptiometry
Buffer: 145 mM NaCl, 5 mM KCl, 1 mg/mL PEG 8000, 30 mM HEPES, pH 7.4
10 mM test compound dissolved in 100% DMSO was diluted with 100% DMSO to […]; 98 μL of FXIa enzyme solution (77.7 ng/mL) was added to each well of a 96-well plate, and 98 μL of buffer was added to the blank wells. 2 μL of compounds of different concentrations were added, and the blank and control wells were added with DMSO instead. They were mixed with a shaker, and incubated at 37° C. for 20 minutes.
Finally, 100 μL of 800 μM substrate was added to each well, and its absorbance was measured at 405 nm.

CYP3A4 = biological target: T2, CYP3A4 (Homo sapiens, UniProt P08684); assay: CYP enzyme inhibition in liver microsomes: CYP3A4; type: in vitro ADME; details: 0.2 mg/mL liver microsomes
T2 construct: Liver microsomes (150-donor, Corning, Cat. 452117; Lot; 38292), NADPH; tissue Corning 452117; host or cells: liver microsomes, 150-donor pool
Protocol: Example 55: Investigation of CYP Enzyme Inhibition by the Compounds of the Present Invention Liver microsomes (150-donor, Corning, Cat. 452117; Lot. 38292), NADPH. […] After pre-incubating for 8 min, 10 mM NADPH was added to start the reaction, and the final concentration of NADPH was 1 mM. After a period of incubation, an internal standard such as methanol was added to stop the reaction. The amount of substrate metabolites generated in each reaction well was detected. […]

T2 sequence (P08684 whole entry): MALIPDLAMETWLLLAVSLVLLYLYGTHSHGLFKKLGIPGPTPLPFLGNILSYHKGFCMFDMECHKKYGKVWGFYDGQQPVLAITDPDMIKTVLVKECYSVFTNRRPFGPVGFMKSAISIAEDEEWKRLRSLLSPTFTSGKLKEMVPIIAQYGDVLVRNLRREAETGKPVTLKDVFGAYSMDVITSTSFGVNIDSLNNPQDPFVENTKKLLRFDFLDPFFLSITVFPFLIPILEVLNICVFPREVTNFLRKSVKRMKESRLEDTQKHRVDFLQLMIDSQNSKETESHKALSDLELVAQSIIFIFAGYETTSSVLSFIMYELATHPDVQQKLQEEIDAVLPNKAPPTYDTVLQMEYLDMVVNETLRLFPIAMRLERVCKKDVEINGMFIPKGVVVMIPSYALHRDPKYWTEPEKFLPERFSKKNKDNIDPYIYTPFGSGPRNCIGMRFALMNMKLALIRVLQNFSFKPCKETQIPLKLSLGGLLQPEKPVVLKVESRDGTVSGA
Chain of Human Factor XIa (P03951 388-625 limits assumed): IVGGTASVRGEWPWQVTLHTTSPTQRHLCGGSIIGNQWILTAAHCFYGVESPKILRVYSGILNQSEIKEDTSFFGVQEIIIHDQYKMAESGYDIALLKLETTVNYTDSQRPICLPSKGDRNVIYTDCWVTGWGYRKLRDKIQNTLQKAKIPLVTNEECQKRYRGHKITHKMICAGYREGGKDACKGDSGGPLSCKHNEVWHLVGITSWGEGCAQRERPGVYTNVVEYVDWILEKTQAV
Chain of Human Factor XIa (P03951 19-387 partner limits assumed): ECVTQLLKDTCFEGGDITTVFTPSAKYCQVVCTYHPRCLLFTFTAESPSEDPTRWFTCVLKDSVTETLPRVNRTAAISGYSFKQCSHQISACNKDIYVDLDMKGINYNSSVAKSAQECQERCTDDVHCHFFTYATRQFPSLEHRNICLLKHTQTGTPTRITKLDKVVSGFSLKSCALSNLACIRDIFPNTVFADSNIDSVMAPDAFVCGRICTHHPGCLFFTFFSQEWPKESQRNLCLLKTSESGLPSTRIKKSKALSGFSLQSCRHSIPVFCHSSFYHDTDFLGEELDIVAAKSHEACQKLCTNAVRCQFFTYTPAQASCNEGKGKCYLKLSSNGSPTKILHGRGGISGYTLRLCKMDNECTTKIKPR

IC50 (Human Factor VIIa) [µM] | efflux ratio at 2 h (Caco-2 permeability) | Papp A→B at 2 h (Caco-2 permeability) [×10⁻⁶ cm/s] | Papp B→A at 2 h (Caco-2 permeability) [×10⁻⁶ cm/s] | IC50 (Human Factor XIa) [nM] | IC50 (CYP3A4) [µM] | Compound
> 100 | 16.3 | 1.54 | 25.1 | 7.61 | > 50 | COc1nn([C@@H](Cc2ccccc2)C(=O)Nc2ccc(C(=O)O)cc2)c(=O)cc1-c1cc(Cl)ccc1C(C)=O [Example 19, (S)-4-(2-(4-(2-acetyl-5-chlorophenyl)-3-methoxy-6-oxopyridazin-1(6H)-yl)-3-phenylpropanamido)benzoic acid]
> 100 | 18.3 | 1.2 | 21.9 | 1.65 | > 50 | CCC(=O)c1ccc(Cl)cc1-c1cc(=O)n([C@@H](Cc2ccccc2)C(=O)Nc2ccc(C(=O)O)cc2)nc1OC [Example 32]
